Data taken from patent publication US20080107603A1, “Neuroprotectant methods, compositions, and screening methods thereof” (priority 2002, published 2008).
Read-outs that look alike come from different tables or passages of the source.

Assays:
[1] = Guinea Pig; cited from earlier work
PC12 cells = assay: Mitochondrial membrane potential (ΔΨm) by TMRE fluorescence; format: cell-based, Rat; details: 25 μM Aβ25-35; pretreatment of EGT (0.5 mM, 1 mM)
Procedure: To measure the mitochondrial membrane potential (ΔΨm), the lipophilic cationic probe TMRE was used. After treatment with Aβ25-35 (25 μM) for 24 h in the presence or absence of EGT, cells (1×10^4 cells/1 ml in 4-well chamber) were rinsed with PBS, and TME (150 nM) was loaded. After 30 min incubation at 37° C., cells were examined under a confocal microscope (LEICA TCS SP).

[2] = tested on: retinal neurons in the retinal ganglion cell layer; assay: NMDA retinal model (intravitreal NMDA, cell counts in retinal wholemounts); format: in vivo, Sprague-Dawley rats
Procedure: Young adult female Sprague-Dawley rats were used in the present experiments. The animals were supplied by Harlan, England and maintained in the Comparative Biology Unit at Charing Cross Hospital Campus, Imperial College. Animal procedures used were in accordance to regulations of Home Office, UK. The animals were divided into four groups. The first group consists of 6 normal rats that received no treatment. A further 9 animals were anesthetized with. Hypnorm™ (0.02 mg of fentanyl citrate and 0.54 mg fluanisone/100 g body weight) and Hypnovel™ (0.27 mg midazolam/100 g body weight) before they received unilateral intravitreal injection of 5 μl of 4 mM NMDA to the vitreous body of the left eyes, with the uninjected right eyes served as controls. Six of the experimental animals injected with NMDA received an additional intraperitoneal injection of L-ergothioneine 0.2 ml of 70 mg/ml (n=3), or phosphate buffer saline (PBS) as vehicle control 24 h and 30 min before injection of NMDA.
Further intraperitoneal injection of L-ergothioneine, or PBS was performed at 1 h, 24 h, 48 h and 72 h time points, and 3 injections per week for another three weeks. Six weeks after injection of NMDA, all animals were anaesthetized deeply again and perfused with physiological saline followed by 4% paraformaldehyde in phosphate buffer (pH 7.4). The eyeballs were collected in the same fixative and post-fixed for another half an hour before the retinas were dissected out in PBS. For each retina, four radial cuts were made before the retinas were flatly mounted onto gelatin-coated slides, and air-dried slowly in a moist chamber for 2-3 days.
The retinal whole-mounts were then stained for cresyl violet and cover slipped. Analysis was performed under a Wild microscope equipped with a camera lucida drawing tube. The number of retinal neurons in the retinal ganglion cell layer was counted and cell sizes measured at a magnification of 300× and in an area of 150×150 μm in the central, intermediate and peripheral parts of the four retinal quadrants. The neurons counted were divided into two groups with somata smaller than 6 μm, or equal to or larger than 6 μm in diameter. The majority of larger neurons are retinal ganglion cells while smaller somata are primarily non-ganglion cells or displaced amacrine cells (Perry (1981) Neuroscience 6:931-944). The numbers of cells were: counted in a total of 12 fields of individual retinas an analyzed statistically. The data is expressed as mean±S.E.M. Differences between values were compared by one-way analysis of variance (ANOVA).

[3] = Ox; cited from earlier work
NF-κB = assay: EMSA, Aβ25-35-induced NF-κB DNA binding activity; format: cell-based, Rat; details: 25 μM Aβ25-35 for 1 h; EGT pretreatment (0.5 mM, 1 mM)
Procedure: To explore the molecular mechanisms underlying the protective effect of L-ergothioneine against Aβ25-35-induced nitrosative cell death, the activation of NF-κB was assessed by EMSA using an oligonucleotide containing a consensus κB binding element. After treatment with 25 μM Aβ25-35 for 1 h in the absence or presence of L-ergothioneine, PC12 cells (1×10^7 cells/7 ml in 100φ dish) were washed with PBS, centrifuged, and resuspended in ice-cold isotonic buffer A [10 mM HEPES, pH 7.9, 1.5 mM MgCl2, 10 mM KCl, 0.5 mM dithiothreitol (DTT) and 0.2 mM phenylmethylsulfonyl fluoride (PMSF)]. Following incubation in an ice bath for 10 min, cells were centrifuged again and resuspended in ice-cold buffer C containing 20 mM HEPES (pH 7.9), 20% glycerol, 420 mM […], 1.5 mM MgCl2, 0.2 mM EDTA, 0.5 mM DTT and 0.2 mM PMSF followed by incubation at 0° C. for 20 min. After vortex-mixing, the resulting suspension was centrifuged, and the supernatant was stored at −70° C. for the NF-κB DNA binding assay. The protein concentration was determined by using the BCA protein assay kit.
Synthetic double strand oligonucleotide containing the NF-κB binding domain was labeled with [γ-^32P]ATP using T4 polynucleotide kinase and separated from unincorporated [γ-^32P]ATP by gel filtration using a nick spin column (Phamacia Biotech, Bjorkgatan, Sweden). […]

[4] = NMDA-injected retina, L-ergothioneine i.p. 0.2 ml of 70 mg/ml, 6 weeks after NMDA
[5] = uninjected control eyes of L-ergothioneine treated animals

C[N+](C)(C)[C@@H](Cc1c[nH]c(=S)[nH]1)C(=O)[O-] [L-ergothioneine, 2-mercaptohistidine trimethylbetaine]
L-Ergothioneine Concentration (mg/100 ml blood) [1]: 1-4 mg/100 ml blood
Aβ25-35-induced dissipation of ΔΨm (PC12 cells): significantly blocked
neuroprotective effect ([2]; NMDA retinal model, versus PBS): significant neuroprotective effect
loss of ganglion cells [2, 4]: 44%
loss of small or non-ganglion cells [2, 4]: 31%
loss of ganglion cells [2, 5]: 7%
loss of non-ganglion cells [2, 5]: 4%
L-Ergothioneine Concentration (mg/100 ml blood) [3]: 0.5-2 mg/100 ml blood
NF-κB DNA binding (NF-κB): inhibited
